Measured values taken from patent publication US20260124240A1, “DRUG RESISTANT IMMUNE CELLS” (The Regents of the University of California, priority 2022, published 2026).

Columns and labels:
[1] = system: Heterozygous BCL2 G101V iPSC-derived NK cells (BCL2G101V/WT); test: Venetoclax dose response / cell survival assay on heterozygous BCL2 G101V iPSC-derived NK cells; type: cell-based; details: Homo sapiens, viability at 72 hours post treatment
Experimental: (§1) FIGS. 12A-12H: BCL2 G101V iPSC-derived NK cells are resistant to venetoclax and anti-apoptotic BCL2 family member levels are unchanged. Dose response curves for WT iPSC-derived NK (FIG. 12A), Homozygous BCL2 G101V iPSC-derived NK cells (FIG. 12B), and Heterozygous BCL2 G101V iPSC-derived NK cells (FIG. 12C) treated with Venetoclax and assessed for viability at 72 hours post treatment. FIG. 12D. Dose response for WT iPSC-derived NK and homozygous BCL2 G101V iPSC-derived NK cells treated with dexamethasone and assessed for viability at 72 hours post treatment. […] real-time PCR analysis of BCL2 (FIG. 12E), BCL-XL (FIG. 12F), and MCL1 (FIG. 12G) mRNA level for WT iPSC-derived NK and BCL2 G101V iPSC-derived NK cells vehicle or venetoclax treated. FIG. 12H. Immunoblots for BCL2, and BCL-XL protein levels with a β-actin loading control.
(§2) Resistance to venetoclax of the heterozygous and homozygous BCL2 G101V iPSC-derived NK cells was tested in cell survival assays.

[2] = dose of 400 mg/day; cited from earlier work
[3] = system: venetoclax-resistant MOLM13 cells; test: Venetoclax sensitivity of venetoclax-resistant MOLM13 cells; type: cell-based
Experimental: The MOLM13 cells lines were cultured continuously in increasing concentrations of venetoclax over 6 weeks to generate and select for venetoclax-resistant cells. The resulting cells could be maintained in 3 μM venetoclax without toxicity. The resistant cells were cultured continuously in the presence of venetoclax.
(§3) For longer-term assays to examine the ability of BCL2G101V/G101V iPSC-derived NK cells to mediate effective killing of venetoclax-resistant AML cells, MOLM13 cells that are venetoclax-resistant were generated.

[4] = system: Homozygous BCL2 G101V iPSC-derived NK cells (1F6); test: Venetoclax dose response / cell survival assay on homozygous BCL2 G101V (1F6) iPSC-derived NK cells; type: cell-based; details: Homo sapiens; homozygous BCL2G101V/G101V (1F6) NK cells; viability at 72 hours post treatment; read-out: EC50 where 50% of the NK cells are killed by venetoclax
Experimental: as §1, §2

[5] = system: WT MOLM13 cells; test: Venetoclax sensitivity of WT MOLM13 cells; type: cell-based; details: Homo sapiens, MOLM-13
Source text: as §3

[6] = system: WT iPSC-derived NK cells (BCL2WT/WT); test: Venetoclax dose response / cell survival assay on WT iPSC-derived NK cells; type: cell-based, human
Experimental: as §1, §2

[7] = system: luciferase-expressing, venetoclax-resistant MOLM-13 cells; test: Mouse xenograft study (MOLM13 AML); type: in vivo; details: NSG mice, 1×10^7 NK cells IV, venetoclax 50 mg/kg daily for 21 days where given
Experimental: FIG. 15: A schema of NK cell dosing regimen and venetoclax treatment plan. NSG mice were inoculated IV with 2.5×10^5 luciferase-expressing MOLM13 cells, and tumor engraftment was assessed by IVIS imaging 4 days later for baseline pre-treatment grouping. On day 4 after tumor inoculation, mice were either left untreated or treated with 1×10^7 WT iPSC-derived NK cells or BCL2 G101V iPSC-derived NK cells alone or in combination with venetoclax for 21 days. NK cells were supported by injection of IL-15 for the first week and IL-2 for three weeks with IVIS imaging done as indicated to monitor tumor progression.
Eight-week-old NOD/SCID/γc−/− (NSG) mice (Jackson Laboratories, n=5 per group) were used for in vivo experiments. Mice received 2.5×10^5 luciferase-expressing MOLM13 tumor cells intravenously. Mice were sub-lethally irradiated (225 cGy) 4 days after tumor engraftment. 107 NK cells/mouse were injected IV on the day of irradiation. NK cells were supported by the injection of IL-2 and IL-15 as reported previously 27, 28. […] Tumor burden was determined by BLI using the Xenogen IVIS Imaging system. […]
To evaluate the anti-tumor activity of BCL2G101V/G101V NK cells in vivo, BCL2G101V/G101V iPSC-derived NK cell killing of MOLM13 AML cells was assessed in a mouse xenograft tumor model. […] Tumor growth was monitored by bioluminescent imaging (BLI) (FIG. 16A).

In the case of CC1(C)CCC(CN2CCN(c3ccc(C(=O)NS(=O)(=O)c4ccc(NCC5CCOCC5)c([N+](=O)[O-])c4)c(Oc4cnc5[nH]ccc5c4)c3)CC2)=C(c2ccc(Cl)cc2)C1 [venetoclax], the EC50 [1] is given as 3550 nM, the serum concentration [2] is given as 2300 nM and the “increased resistance to venetoclax compared to WT MOLM13 cells” value ([3]; venetoclax-resistant MOLM13) is given as “over 100 fold”. The “venetoclax concentration in which resistant cells could be maintained without toxicity” value ([3]; venetoclax-resistant MOLM13, selected over 6 weeks) was 3 µM, the EC50 [4] was 6020 nM and the IC50 [5] was 24 nM. For the same compound, the EC50 ([6]; Homo sapiens, WT iPSC-derived NK cells, viability at 72 hours post treatment, read-out: EC50 where 50% of the NK cells are killed by venetoclax) was 63.7 nM, the “toxicity to unengineered NK cells” value ([6]; at serum concentration of 2.3 μmol/L) was “toxic” and the median survival [7] was 18.8 days.
